Measured values as given in patent publication US10828250B2, “Topical formulation” (LIMEWAY PHARMA DESIGN LIMITED, priority 2015, dated 2020).

Key:
[1] = saturated solubility of corticosteroids in liquid silicones and in propylene glycol:glycerol(:water) mixtures; assay type: physicochemical; conditions: for saturated solubility in propylene glycol:glycerol mixtures: as glycerol is added to propylene glycol, FIG. 8; for saturated solubility in propylene glycol:glycerol:water mixtures: as water is added to propylene glycol:glycerol 70:30, FIG. 9; for saturated solubility in liquid silicones: range of liquid silicones including caprylyl methicone, FIG. 1
Method: Similarly, active solubility may be reduced in the non-volatile residual phase. […] As glycerol is added to propylene glycol the solubility of FP and MF decreases. […] As water is added to propylene glycol:glycerol 70:30 the solubility of FP and MF decreases. Water may be present in certain embodiments of the formulation or may be present in the residual phase due to uptake of transepidermal water. Although water is a highly volatile solvent, humectant glycols retain water depending upon ambient conditions.

[2] = assay type: physicochemical
Text: As described previously, diffusion coefficient-enhancing excipients (DC enhancers) for use in the present invention commonly comprise alcohol, acid or ester derivatives of C8-C22 hydrocarbons.
In the acid and alcohol series, FIG. 2, as carbon chain length increases, solubility in caprylyl methicone decreases to less than 0.1% w/w at C18, such that these higher carbon chain lengths may be considered unsuitable for use as the DC enhancer in the formulation of the present invention owing to low solubility-dissolution constraints. Conversely, lower carbon chain length acids and alcohols such as C8 and C10 alcohols and C8 and C10 acids may be considered to be far too soluble in hydrocarbyl methyl siloxanes including caprylyl methicone, such that their performance as diffusion coefficient-enhancing excipients would be adversely affected. Similarly, long chain (for instance C14-C16) isopropyl esters are far too soluble in hydrocarbyl methyl siloxanes such as caprylyl methicone to allow performance as DC enhancers. For both of these classes of DC enhancer, up to 50% DC enhancer would be required to be at or near saturation in the non-volatile residual phase. In contrast, the C12-C14 acids and C12 alcohol have appropriate solubility in caprylyl methicone.
Conversely, from C16-C22 solubility is too low to allow adequate performance. […]

Molecule	saturated solubility in propylene glycol:glycerol mixtures [1]	saturated solubility in propylene glycol:glycerol:water mixtures [1]	saturated solubility in liquid silicones [1]	amount to saturate caprylyl methicone (solubility) [2] [%]	amount to saturate propylene glycol (solubility) [2] [%]
C[C@@H]1C[C@H]2[C@@H]3CCC4=CC(=O)C=C[C@]4(C)[C@@]3(Cl)[C@@H](O)C[C@]2(C)[C@@]1(OC(=O)c1ccco1)C(=O)CCl [mometasone furoate]	decreases	decreases	appropriately low	–	–
myrystyl alcohol [C14 alcohol]	–	–	–	2.30	2.44
CCC(=O)O[C@]1(C(=O)SCF)[C@H](C)C[C@H]2[C@@H]3C[C@H](F)C4=CC(=O)C=C[C@]4(C)[C@@]3(F)[C@@H](O)C[C@@]21C [fluticasone propionate]	decreases	decreases	appropriately low	–	–
